The values that follow come from ChEMBL document CHEMBL1137719, “Receptor-based 3D-QSAR studies of checkpoint Wee1 kinase inhibitors” (Eur J Med Chem, 2009).

The target of this assay is Wee1-like protein kinase (Homo sapiens, UniProt P30291).

Values joined by “and” are separate entries in the source; they are usually repeats but may differ in a detail not shown here. Equal entries are not always repeated.

Wee1-like protein kinase, sequence (P30291 whole entry): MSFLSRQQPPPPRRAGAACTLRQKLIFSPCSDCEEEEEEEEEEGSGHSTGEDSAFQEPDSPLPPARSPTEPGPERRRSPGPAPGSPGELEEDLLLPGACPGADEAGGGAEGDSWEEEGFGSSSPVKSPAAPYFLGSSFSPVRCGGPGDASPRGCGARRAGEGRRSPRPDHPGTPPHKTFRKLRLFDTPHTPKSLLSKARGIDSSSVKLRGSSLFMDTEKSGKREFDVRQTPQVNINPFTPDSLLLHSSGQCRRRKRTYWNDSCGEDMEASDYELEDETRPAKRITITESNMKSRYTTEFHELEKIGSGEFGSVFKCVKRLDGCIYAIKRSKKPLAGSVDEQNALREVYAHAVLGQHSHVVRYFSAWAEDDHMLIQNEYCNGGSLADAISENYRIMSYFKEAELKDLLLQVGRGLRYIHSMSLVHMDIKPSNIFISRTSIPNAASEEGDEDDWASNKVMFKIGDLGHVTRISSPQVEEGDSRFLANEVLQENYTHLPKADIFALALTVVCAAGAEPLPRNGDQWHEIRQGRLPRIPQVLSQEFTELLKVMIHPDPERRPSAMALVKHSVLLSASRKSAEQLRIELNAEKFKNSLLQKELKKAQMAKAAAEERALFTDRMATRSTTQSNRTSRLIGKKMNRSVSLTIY

The IC50 is the concentration that gives 50% inhibition. The low end stands for greater potency in that assay, the high end for weaker potency in that assay. In the case of `CN(C)CCCn1c2ccc(O)cc2c2c3c(ccc21)C(=O)NC3=O`, the IC50 is 0.36 µM and 0.363 µM.

In the case of `O=C1NC(=O)c2c1c(-c1ccc(-c3ccccc3)cc1)cc1[nH]c3ccc(O)cc3c21`, half-maximal inhibition (IC50) was put at 40 µM. In other words, the double-digit micromolar range.

`O=C1NC(=O)c2c1ccc1c2c2cc(O)ccc2n1CCC(=O)n1ccnc1`: the IC50 is 0.229 µM and 0.23 µM.

On to `O=C1NC(=O)c2c1ccc1c2c2cc(O)ccc2n1CCCC(=O)N1CCOCC1`, for which the IC50 was 0.288 µM and 0.29 µM.

With `Cn1c2cc(S(=O)(=O)NCCn3cccc3)c(O)cc2c2c3c(c(-c4ccccc4Cl)cc21)C(=O)NC3=O`, the IC50 is 0.046 µM and 0.0457 µM.

As to `O=C1NC(=O)c2c1c(-c1c(Cl)cccc1Cl)cc1c2c2cc(O)ccc2n1CCCC(=O)n1ccnc1`, the IC50 is 0.0589 µM and 0.059 µM.

`Nc1cc(-c2cc3[nH]c4ccc(O)cc4c3c3c2C(=O)NC3=O)ccc1Cl` gave an IC50 of 0.024 µM.

Regarding `Cn1c2cc([S+]([O-])CCCn3cccc3)c(O)cc2c2c3c(c(-c4ccccc4Cl)cc21)C(=O)NC3=O` (stereo not given), the IC50 is 0.033 µM and 0.0331 µM.

As for `O=C1NC(=O)c2c1c(-c1ccccc1Cl)cc1c2c2cc(O)ccc2n1CCS(=O)(=O)n1ccnn1`, the IC50 is 0.019 µM and 0.0191 µM.

For the compound `O=C1NC(=O)c2c1ccc1c2c2cc(O)ccc2n1CCO`, the IC50 was 0.0251 µM and 0.025 µM.

As for `CN1CCN(CCCn2c3ccc(O)cc3c3c4c(ccc32)C(=O)NC4=O)CC1`, the IC50 was 0.302 µM and 0.3 µM.

`O=C1NC(=O)c2c1c(-c1cccc(O)c1Cl)cc1[nH]c3ccc(O)cc3c21`: half-maximal inhibition (IC50) was put at 0.0282 µM. In other words, the double-digit nanomolar range.

With `O=C1NC(=O)c2c1c(-c1ccccc1Cl)cc1c2c2cc(O)ccc2n1CCCC(=O)n1ccnc1`, the IC50 is 0.054 µM and 0.0537 µM.

As to `O=C1NC(=O)c2c1c(-c1ccccc1Cl)cc1c2c2cc(O)ccc2n1CC[S+]([O-])n1ccnn1` (stereo not given), the IC50 is 0.009 µM and 0.00891 µM.

Regarding `O=C1NC(=O)c2c1c(-c1ccccc1)c(-c1ccccc1)c1[nH]c3ccc(O)cc3c21`, the IC50 was 2.34 µM. This counts as single-digit micromolar.

Turning to `O=C1NC(=O)c2c1c(-c1c(Cl)cccc1Cl)cc1c2c2cc(O)ccc2n1CCC(=O)N1CCOCC1`, the IC50 is 0.11 µM.

`O=C1NC(=O)c2c1c(-c1ccccc1Cl)cc1c2c2cc(O)ccc2n1CCC(=O)N1CCOCC1`: the IC50 is 0.0646 µM and 0.064 µM.

Take `O=C1NC(=O)c2c1ccc1c2c2cc(O)ccc2n1CCCNc1ccccc1`: the IC50 was 0.0933 µM and 0.093 µM.

As for `Cn1c2cc(CCCCn3cccc3)c(O)cc2c2c3c(c(-c4ccccc4Cl)cc21)C(=O)NC3=O`, the IC50 was 0.036 µM and 0.0363 µM.

With `O=C1NC(=O)c2c1c(-c1c(Cl)cccc1Cl)cc1c2c2cc(O)ccc2n1CCC(=O)n1ccnc1`, it took 0.12 µM to reach half-maximal inhibition (IC50).

Consider `NC(=O)CCn1c2ccc(O)cc2c2c3c(ccc21)C(=O)NC3=O`, for which the IC50 is 0.0209 µM and 0.021 µM.

For the compound `CNCCCn1c2ccc(O)cc2c2c3c(ccc21)C(=O)NC3=O`, the IC50 was 0.282 µM and 0.28 µM.

`CSc1ccc(-c2cc3[nH]c4ccc(O)cc4c3c3c2C(=O)NC3=O)cc1` showed an IC50 of 31.6 µM.

`O=C1NC(=O)c2c1cc(-c1ccccc1)c1[nH]c3ccc(O)cc3c21` gave an IC50 of 4.07 µM. Against the preceding compound, the IC50 is about 7.8-fold lower.

Consider `Cn1c2ccc(O)cc2c2c3c(ccc21)C(=O)NC3=O`, for which the IC50 was 0.141 µM and 0.14 µM.

`O=C1NC(=O)c2c1c(-c1ccccc1Cl)cc1[nH]c3cc(CCCCn4cccc4)c(O)cc3c21`: the IC50 is 0.05 µM and 0.0501 µM.

In the case of `O=C1NC(=O)c2c1c(-c1ccccc1Cl)cc1c2c2cc(O)ccc2n1CCC(=O)n1ccnc1`, the IC50 was 0.0912 µM and 0.092 µM.

`O=C1NC(=O)c2c1c(-c1ccccc1Cl)cc1c2c2c(n1CCO)=CC(OCCCn1cccc1)C(O)(O)C=2` (stereo not given): the IC50 is 0.018 µM and 0.0182 µM.

For `O=C1NC(=O)c2c1ccc1c2c2cc(O)ccc2n1CCC(=O)N1CCOCC1`, the IC50 was 0.14 µM and 0.141 µM.

Take `O=C1NC(=O)c2c1ccc1c2c2cc(O)ccc2n1CCCC(=O)n1ccnc1`: 0.11 µM corresponded to half-maximal inhibition (IC50).

`O=C1NC(=O)c2c1c(-c1ccccc1Cl)cc1c2c2cc(O)c(OCCCn3cccc3)cc2n1CCO` came in with an IC50 of 0.024 µM.

`O=C1NC(=O)c2c1c(-c1ccccc1Cl)cc1c2c2cc(O)c(CCCCn3cccc3)cc2n1CCO` registered an IC50 of 0.024 µM.

`Cn1c2cc(S(=O)(=O)CCCn3cccc3)c(O)cc2c2c3c(c(-c4ccccc4Cl)cc21)C(=O)NC3=O`: the IC50 was 0.16 µM and 0.158 µM.

For `O=C(O)CCn1c2ccc(O)cc2c2c3c(ccc21)C(=O)NC3=O`, the IC50 is 0.0229 µM and 0.023 µM.

In turn, `O=C1NC(=O)c2c1c(I)cc1[nH]c3ccc(O)cc3c21` gave an IC50 of 2.34 µM.

`O=C1NC(=O)c2c1c(-c1ccccc1Cl)cc1[nH]c3cc(OCCCn4cccc4)c(O)cc3c21`: the half-maximal inhibitory concentration (IC50) is 0.036 µM and 0.0363 µM.

With `CC(=O)c1cccc(-c2cc3[nH]c4ccc(O)cc4c3c3c2C(=O)NC3=O)c1`, the IC50 is 4.37 µM.

As for `NN1C(=O)c2c(-c3ccccc3)cc3[nH]c4ccc(O)cc4c3c2C1=O`, the midpoint of inhibition, the IC50, lay at 3.98 µM.

As for `CN(C)CCn1c2ccc(O)cc2c2c3c(ccc21)C(=O)NC3=O`, the IC50 was 0.2 µM.

As for `Cn1c2cc(SCCCn3cccc3)c(O)cc2c2c3c(c(-c4ccccc4Cl)cc21)C(=O)NC3=O`, the IC50 worked out at 0.02 µM.

The compound `O=C1NC(=O)c2c1c(-c1ccccc1Cl)cc1c2c2cc(O)ccc2n1CCSn1ccnn1` displayed an IC50 of 0.024 µM.

In turn, `O=C1NC(=O)c2c1ccc1c2c2cc(O)ccc2n1CCCO` had an IC50 of 0.2 µM.

`CS(=O)(=O)c1ccc(-c2cc3[nH]c4ccc(O)cc4c3c3c2C(=O)NC3=O)cc1`: the IC50 is 1.12 µM and 1.1 µM.

As for `CN(C)CCNC(=O)CCn1c2ccc(O)cc2c2c3c(ccc21)C(=O)NC3=O`, the IC50 is 0.17 µM.

For the compound `O=C1NC(=O)c2c1c(-c1c(Cl)cccc1Cl)cc1c2c2cc(O)ccc2n1CCCC(=O)N1CCOCC1`, the IC50 is 0.0646 µM and 0.064 µM.
